# Test results reported in PubChem BioAssay (NCI).
#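 Following 48 hours of exposure in 96-well plates, responses at five concentrations were used to interpolate endpoints linearly. The concentration for full growth arrest is given as TGI.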
# Experiments:
# Assay in all cases: DTP human tumour cell line panel, 48 h
# M14 melanoma = system: M14 melanoma
# SNB-75 CNS = system: SNB-75 CNS
# SF-268 CNS = system: SF-268 CNS
# K-562 leukemia = system: K-562 leukemia
# HT29 colon = system: HT29 colon
# CAKI-1 renal = system: CAKI-1 renal
# 786-0 renal = system: 786-0 renal
# ACHN renal = system: ACHN renal
# BT-549 breast = system: BT-549 breast
# SK-MEL-2 melanoma = system: SK-MEL-2 melanoma
# UO-31 renal = system: UO-31 renal
# CCRF-CEM leukemia = system: CCRF-CEM leukemia
# HCT-116 colon = system: HCT-116 colon
# NCI/ADR-RES ovarian = system: NCI/ADR-RES ovarian
# SF-539 CNS = system: SF-539 CNS
# HCT-15 colon = system: HCT-15 colon
# T-47D breast = system: T-47D breast
# SK-OV-3 ovarian = system: SK-OV-3 ovarian
# MDA-MB-435 = system: MDA-MB-435
# KM12 colon = system: KM12 colon
# LOX IMVI melanoma = system: LOX IMVI melanoma
# UACC-62 melanoma = system: UACC-62 melanoma
# MDA-N = system: MDA-N
# OVCAR-4 ovarian = system: OVCAR-4 ovarian
# SR leukemia = system: SR leukemia
# SK-MEL-28 melanoma = system: SK-MEL-28 melanoma
# MALME-3M melanoma = system: MALME-3M melanoma
# UACC-257 melanoma = system: UACC-257 melanoma
# NCI-H226 lung = system: NCI-H226 lung
# OVCAR-3 ovarian = system: OVCAR-3 ovarian
# HL-60(TB) leukemia = system: HL-60(TB) leukemia
# HOP-92 NSCLC = system: HOP-92 NSCLC
# NCI-H460 lung = system: NCI-H460 lung
# PC-3 prostate = system: PC-3 prostate
# COLO 205 colon = system: COLO 205 colon
# U251 CNS = system: U251 CNS
# A498 renal = system: A498 renal
# RXF 393 renal = system: RXF 393 renal
# IGROV1 ovarian = system: IGROV1 ovarian
# OVCAR-8 ovarian = system: OVCAR-8 ovarian
# OVCAR-5 ovarian = system: OVCAR-5 ovarian
# EKVX NSCLC = system: EKVX NSCLC
# MCF7 breast = system: MCF7 breast
# SN12C renal = system: SN12C renal
# SNB-19 CNS = system: SNB-19 CNS
# RPMI-8226 leukemia = system: RPMI-8226 leukemia
# NCI-H23 lung = system: NCI-H23 lung
# HCC-2998 colon = system: HCC-2998 colon
# HOP-62 NSCLC = system: HOP-62 NSCLC
# MDA-MB-231 breast = system: MDA-MB-231 breast
# SF-295 CNS = system: SF-295 CNS
# A549 NSCLC = system: A549 NSCLC
# SK-MEL-5 melanoma = system: SK-MEL-5 melanoma
# MOLT-4 leukemia = system: MOLT-4 leukemia
# NCI-H522 lung = system: NCI-H522 lung
# DU-145 prostate = system: DU-145 prostate
# SW-620 colon = system: SW-620 colon
# TK-10 renal = system: TK-10 renal
smiles,measurement,setting,value
C=C(C)C12OC3(c4ccccc4)OC1C1C4OC4(CO)C(O)C4(O)C(=O)C(C)=CC4C1(O3)C(C)C2OC(=O)/C=C/C=C/c1ccccc1 (stereo not given),TGI,M14 melanoma,0.409 µM
same,TGI,SNB-75 CNS,1.15 µM
same,TGI,SF-268 CNS,1.25 µM
same,TGI,K-562 leukemia,2.35 µM
same,TGI,HT29 colon,0.22 µM
same,TGI,CAKI-1 renal,1.52 µM
same,TGI,786-0 renal,0.699 µM
same,TGI,ACHN renal,0.557 µM
same,TGI,BT-549 breast,0.97 µM
same,TGI,SK-MEL-2 melanoma,1.89 µM
same,TGI,UO-31 renal,0.576 µM
same,TGI,CCRF-CEM leukemia,1.5 µM
same,TGI,HCT-116 colon,0.887 µM
same,TGI,NCI/ADR-RES ovarian,1.38 µM
same,TGI,SF-539 CNS,1.52 µM
same,TGI,HCT-15 colon,1.98 µM
same,TGI,T-47D breast,4.84 µM
same,TGI,SK-OV-3 ovarian,4.73 µM
same,TGI,MDA-MB-435,0.742 µM
same,TGI,KM12 colon,0.862 µM
same,TGI,LOX IMVI melanoma,0.411 µM
same,TGI,UACC-62 melanoma,1.29 µM
same,TGI,MDA-N,0.817 µM
same,TGI,OVCAR-4 ovarian,0.697 µM
same,TGI,SR leukemia,0.385 µM
same,TGI,SK-MEL-28 melanoma,1.55 µM
same,TGI,MALME-3M melanoma,1.24 µM
same,TGI,UACC-257 melanoma,1.94 µM
same,TGI,NCI-H226 lung,1.06 µM
same,TGI,OVCAR-3 ovarian,0.316 µM
same,TGI,HL-60(TB) leukemia,0.107 µM
same,TGI,HOP-92 NSCLC,0.836 µM
same,TGI,NCI-H460 lung,3.04 µM
same,TGI,PC-3 prostate,0.62 µM
same,TGI,COLO 205 colon,0.0416 µM
same,TGI,U251 CNS,0.894 µM
same,TGI,A498 renal,0.183 µM
same,TGI,RXF 393 renal,1.07 µM
same,TGI,IGROV1 ovarian,2.4 µM
same,TGI,OVCAR-8 ovarian,1.15 µM
same,TGI,OVCAR-5 ovarian,0.597 µM
same,TGI,EKVX NSCLC,1.13 µM
same,TGI,MCF7 breast,0.911 µM
same,TGI,SN12C renal,0.37 µM
same,TGI,SNB-19 CNS,5 µM
same,TGI,RPMI-8226 leukemia,0.519 µM
same,TGI,NCI-H23 lung,1.4 µM
same,TGI,HCC-2998 colon,0.246 µM
same,TGI,HOP-62 NSCLC,1.65 µM
same,TGI,MDA-MB-231 breast,0.264 µM
same,TGI,SF-295 CNS,1.09 µM
same,TGI,A549 NSCLC,2.39 µM
same,TGI,SK-MEL-5 melanoma,0.989 µM
same,TGI,MOLT-4 leukemia,2.34 µM
same,TGI,NCI-H522 lung,1.1 µM
same,TGI,DU-145 prostate,1.47 µM
C=Cc1ccccc1C1C(C(=O)OCC)=C(C)N=C2OC(C(=O)OC)C(=O)N21 (stereo not given),TGI,M14 melanoma,> 100 µM
same,TGI,SNB-75 CNS,> 100 µM
same,TGI,SF-268 CNS,> 100 µM
same,TGI,K-562 leukemia,> 100 µM
same,TGI,HT29 colon,> 100 µM
same,TGI,CAKI-1 renal,> 100 µM
same,TGI,786-0 renal,> 100 µM
same,TGI,ACHN renal,> 100 µM
same,TGI,BT-549 breast,> 100 µM
same,TGI,SK-MEL-2 melanoma,> 100 µM
same,TGI,UO-31 renal,> 100 µM
same,TGI,SW-620 colon,> 100 µM
same,TGI,CCRF-CEM leukemia,> 100 µM
same,TGI,HCT-116 colon,> 100 µM
same,TGI,NCI/ADR-RES ovarian,> 100 µM
same,TGI,SF-539 CNS,> 100 µM
same,TGI,HCT-15 colon,> 100 µM
same,TGI,T-47D breast,> 100 µM
same,TGI,SK-OV-3 ovarian,> 100 µM
same,TGI,MDA-MB-435,> 100 µM
same,TGI,KM12 colon,> 100 µM
same,TGI,LOX IMVI melanoma,> 100 µM
same,TGI,UACC-62 melanoma,> 100 µM
same,TGI,MDA-N,> 100 µM
same,TGI,OVCAR-4 ovarian,> 100 µM
same,TGI,SR leukemia,> 100 µM
same,TGI,SK-MEL-28 melanoma,> 100 µM
same,TGI,MALME-3M melanoma,> 100 µM
same,TGI,UACC-257 melanoma,> 100 µM
same,TGI,NCI-H226 lung,> 100 µM
same,TGI,OVCAR-3 ovarian,> 100 µM
same,TGI,HL-60(TB) leukemia,> 100 µM
same,TGI,HOP-92 NSCLC,> 100 µM
same,TGI,NCI-H460 lung,> 100 µM
same,TGI,PC-3 prostate,> 100 µM
same,TGI,COLO 205 colon,> 100 µM
same,TGI,U251 CNS,> 100 µM
same,TGI,A498 renal,> 100 µM
same,TGI,RXF 393 renal,> 100 µM
same,TGI,TK-10 renal,> 100 µM
same,TGI,IGROV1 ovarian,> 100 µM
same,TGI,OVCAR-8 ovarian,> 100 µM
same,TGI,OVCAR-5 ovarian,> 100 µM
same,TGI,EKVX NSCLC,> 100 µM
same,TGI,MCF7 breast,> 100 µM
same,TGI,SN12C renal,> 100 µM
same,TGI,SNB-19 CNS,> 100 µM
same,TGI,RPMI-8226 leukemia,> 100 µM
same,TGI,NCI-H23 lung,> 100 µM
same,TGI,HCC-2998 colon,> 100 µM
same,TGI,HOP-62 NSCLC,> 100 µM
same,TGI,MDA-MB-231 breast,> 100 µM
same,TGI,SF-295 CNS,> 100 µM
same,TGI,A549 NSCLC,> 100 µM
same,TGI,SK-MEL-5 melanoma,> 100 µM
same,TGI,MOLT-4 leukemia,> 100 µM
same,TGI,NCI-H522 lung,> 100 µM
same,TGI,DU-145 prostate,> 100 µM
N#CC(C#N)N=Nc1ccc(-c2nc3ccccc3s2)cc1,TGI,M14 melanoma,32.1 µM
same,TGI,SNB-75 CNS,54.8 µM
same,TGI,HT29 colon,20.4 µM
same,TGI,CAKI-1 renal,20.7 µM
same,TGI,786-0 renal,22 µM
same,TGI,ACHN renal,15.2 µM
same,TGI,BT-549 breast,19.2 µM
same,TGI,SK-MEL-2 melanoma,16.7 µM
same,TGI,UO-31 renal,21.8 µM
same,TGI,SW-620 colon,22.7 µM
same,TGI,HCT-116 colon,13.6 µM
same,TGI,NCI/ADR-RES ovarian,15.2 µM
same,TGI,SF-539 CNS,25.8 µM
same,TGI,HCT-15 colon,13.5 µM
same,TGI,T-47D breast,8.21 µM
same,TGI,MDA-MB-435,39.9 µM
same,TGI,LOX IMVI melanoma,20.4 µM
same,TGI,MDA-N,63.1 µM
same,TGI,OVCAR-4 ovarian,78.6 µM
same,TGI,SR leukemia,10.3 µM
same,TGI,SK-MEL-28 melanoma,35.9 µM
same,TGI,MALME-3M melanoma,7.99 µM
same,TGI,UACC-257 melanoma,11.2 µM
same,TGI,HOP-92 NSCLC,4.64 µM
same,TGI,PC-3 prostate,10.1 µM
same,TGI,COLO 205 colon,14 µM
same,TGI,A498 renal,23.8 µM
same,TGI,RXF 393 renal,15.8 µM
same,TGI,TK-10 renal,11.3 µM
same,TGI,IGROV1 ovarian,22.2 µM
same,TGI,OVCAR-8 ovarian,43.8 µM
same,TGI,OVCAR-5 ovarian,50.5 µM
same,TGI,EKVX NSCLC,22.8 µM
same,TGI,MCF7 breast,14.9 µM
same,TGI,SN12C renal,10.8 µM
same,TGI,RPMI-8226 leukemia,3.4 µM
same,TGI,NCI-H23 lung,8.72 µM
same,TGI,SK-MEL-5 melanoma,9.37 µM
same,TGI,MOLT-4 leukemia,3.68 µM
same,TGI,NCI-H522 lung,7.8 µM
same,TGI,DU-145 prostate,19.6 µM
